Test results from paper PMC10302202, “The Finding of New In Vivo Metabolite Triptorelin (5-10) in Human Urine Using Liquid Chromatography Coupled with Ion Trap/Time-of-Flight Mass Spectrometry with Dimethyl Sulfoxide Additives in the Mobile Phase” (Molecules, 2023).
Non-standard residues stand in square brackets, D forms with d. Residues, ends and D or L forms follow the SMILES beside them.

Tests used:
[1] = Urine levels of leuprorelin and leuprorelin (5-9) in patients after leuprorelin administration (LC/MS-IT-TOF); conditions: SPE; for detection level in urine, 3 h / detection level in urine, 6 h: first time, prostate cancer patient
Procedure: (§1) Sample analysis was carried out by using the LCMS-IT-TOF Prominence system (Shimadzu, Japan) and LC model UPLC 8040 [18]. The analytical column was a Poroshell 120 EC-C18 (2.1 mm × 150 mm, 2.7 μm particle) coupled with a guard column (SecurityGuard^TM C18, 3.0 mm). The column compartment temperature was set at 30 °C. The autosampler unit temperature was set at 10 °C. Dry gas was set at 47 kPa, and nebulizer gas was set at 1.5 L/min. The curved desolvation line (CDL) and heating block temperature were set at 250 °C. The spray voltage was set at 4 kV.
(§2) Urine samples were collected at the Division of Urology, Department of Surgery, Faculty of Medicine, Ramathibodi Hospital, Bangkok, Thailand. […] Urine samples were collected at 0.0, 3.0, and 6.0 h from 5 patients who had received either 11.25 mg of Enantone® L.P (leuprorelin acetate) or Diphereline® P.R. (triptorelin pamoate) intramuscularly for the first time.
(§3) In this study, 200 mL of sodium phosphate buffer (pH 6.8; 0.8 M) was added to a 3.0 mL aliquot of urine. The batch of samples was centrifuged at 5000 rpm for 5 min at 5 °C. The supernatant from each tube was transferred to a new set of protein LoBind® tubes, Eppendorf (Melbourne, Australia) and 20 μL of ISTD (see Section 4.3) was added to each sample [17]. SPE cartridges (see Section 4.1) were activated with 2 mL of methanol followed by 2 mL of ultra-pure water. The supernatants were slowly loaded onto the SPE cartridges (flow rate is approximately 1.0 mL/min) and washed with 1 mL of water, followed by 1 mL of freshly prepared 10% v/v aqueous methanol; then, all washing solutions were removed and dried using a vacuum pump. Elution was performed using freshly prepared 10% v/v formic acid in methanol. Eluates were evaporated at 45 °C to approximately 10 μL in a vacuum centrifuge. The residues were reconstituted in 50 μL of freshly prepared 0.1% formic acid in water.
(§4) The mobile phases were 0.1% formic acid in water with or without 1% DMSO (mobile phase A) and acetonitrile (mobile phase B) at a flow rate of 0.3 mL/min. The mobile phase gradient program was as follows: 0.0–2.0 min, 20 to 30% B; 2.0–4.0 min, 30 to 45% B; 4.0–5.0 min, 45 to 100% B; 5.0–6.0 min, hold at 100% B; 6.0–7.0 min, 100% to 20% B; and 7.0–9.0 min hold at 20% B (column equilibration). The injection volume was 30 μL. The total runtime is 9 min.
(§5) Mass spectrometric analysis was employed both in the full-scan mode and MS-MS mode. Data analysis was performed using 2 product ion transitions for each compound. LC/MS-IT-TOF mass spectrometric variables, including the m/z of product ions, ion accumulation time, and collision energy (CE), were optimized for maximum abundance for each ion transition. Ionization was performed using ESI in the positive ion mode at 3500 V. The ion accumulation time was 10 milliseconds, and the isolation width was 1.5 Dalton.
(§6) The mean and standard deviation of the concentration of leuprorelin, leuprorelin (5-9), triptorelin, and triptorelin (5-10) from 5 patients were used for statistical analysis.

clinical = conditions: human, in vivo, im, 11.25 mg, detection level in urine, mean
Procedure: as §1, §2, §3, §4, §5, §6

[2] = Urine levels of triptorelin and triptorelin (5-10) in patients after triptorelin administration (LC/MS-IT-TOF); format: in vivo, human; conditions: for detection level in urine, 3 h / detection level in urine, 6 h: first time, prostate cancer patient
Procedure: The column compartment temperature was set at 30 °C. The autosampler unit temperature was set at 10 °C. […] The spray voltage was set at 4 kV.
A further urine sample was collected one month later.
The injection volume was 30 μL. The total runtime is 9 min.

[3] = in vivo; cited from earlier work

Compound: CCNC(=O)[C@@H]1CCCN1C(=O)[C@H](CCCNC(=N)N)NC(=O)[C@H](CC(C)C)NC(=O)[C@@H](CC(C)C)NC(=O)[C@@H](N)Cc1ccc(O)cc1 [Leuprorelin (5-9), leuprorelin (5-9)] (H-Y[dL]LRP-NHEt)
- detection level in urine, 3 h, mean ([1]; mean of n = 5 patients, urine 3 h after 11.25 mg Enantone L.P (leuprorelin acetate) intramuscularly): 74.8 ng/mL
- detection level in urine, 6 h, mean ([1]; mean of n = 5 patients, urine 6 h after 11.25 mg Enantone L.P (leuprorelin acetate) intramuscularly): 78.9 ng/mL
- detection level in urine, 3 h ([1]; patient 1, urine 3 h after 11.25 mg Enantone L.P (leuprorelin acetate) intramuscularly): 68.0 ng/mL
- detection level in urine, 6 h ([1]; patient 1, urine 6 h after 11.25 mg Enantone L.P (leuprorelin acetate) intramuscularly): 73.1 ng/mL
- detection level in urine, 3 h ([1]; patient 2, urine 3 h after 11.25 mg Enantone L.P (leuprorelin acetate) intramuscularly): 106.9 ng/mL
- detection level in urine, 6 h ([1]; patient 2, urine 6 h after 11.25 mg Enantone L.P (leuprorelin acetate) intramuscularly): 18.7 ng/mL
- detection level in urine, 3 h ([1]; patient 3, urine 3 h after 11.25 mg Enantone L.P (leuprorelin acetate) intramuscularly): 162.9 ng/mL
- detection level in urine, 6 h ([1]; patient 3, urine 6 h after 11.25 mg Enantone L.P (leuprorelin acetate) intramuscularly): 100.4 ng/mL
- detection level in urine, 3 h ([1]; patient 4, urine 3 h after 11.25 mg Enantone L.P (leuprorelin acetate) intramuscularly): 16.7 ng/mL
- detection level in urine, 6 h ([1]; patient 4, urine 6 h after 11.25 mg Enantone L.P (leuprorelin acetate) intramuscularly): 23.8 ng/mL
- detection level in urine, 3 h ([1]; patient 5, urine 3 h after 11.25 mg Enantone L.P (leuprorelin acetate) intramuscularly): 19.3 ng/mL
- detection level in urine, 6 h ([1]; patient 5, urine 6 h after 11.25 mg Enantone L.P (leuprorelin acetate) intramuscularly): 178.7 ng/mL

Compound: CCNC(=O)[C@@H]1CCCN1C(=O)[C@H](CCCNC(=N)N)NC(=O)[C@H](CC(C)C)NC(=O)[C@@H](CC(C)C)NC(=O)[C@H](Cc1ccc(O)cc1)NC(=O)[C@H](CO)NC(=O)[C@H](Cc1c[nH]c2ccccc12)NC(=O)[C@H](Cc1c[nH]cn1)NC(=O)[C@@H]1CCC(=O)N1 [Leuprorelin, leuprorelin]
- level at 3 h (clinical; 3 h): 65 ng/mL
- level at 6 h (clinical; 6 h): 106 ng/mL

Compound: CC(C)C[C@H](NC(=O)[C@@H](Cc1c[nH]c2ccccc12)NC(=O)[C@@H](N)Cc1ccc(O)cc1)C(=O)N[C@@H](CCCNC(=N)N)C(=O)N1CCC[C@H]1C(=O)NCC(N)=O [Triptorelin (5-10), triptorelin (5-10)] (H-Y[dW]LRPG-NH2)
- detection level in urine, 1 month, mean ([2]; mean line, n = 5 for triptorelin, n = 3 for triptorelin (5-10), urine 1 month after 11.25 mg Diphereline P.R. (triptorelin pamoate) intramuscularly, ND = not detectable): 0.7 ng/mL
- detection level in urine, 3 h, mean ([2]; mean of n = 5 patients, urine 3 h after 11.25 mg Diphereline P.R. (triptorelin pamoate) intramuscularly, SPE, LC/MS-IT-TOF): 105.5 ng/mL
- detection level in urine, 1 month ([2]; patient 1, urine 1 month after 11.25 mg Diphereline P.R. (triptorelin pamoate) intramuscularly, ND = not detectable, SPE, LC/MS-IT-TOF): 1.2 ng/mL
- detection level in urine, 3 h ([2]; patient 1, urine 3 h after 11.25 mg Diphereline P.R. (triptorelin pamoate) intramuscularly, SPE, LC/MS-IT-TOF): 84.3 ng/mL
- detection level in urine, 6 h ([2]; patient 1, urine 6 h after 11.25 mg Diphereline P.R. (triptorelin pamoate) intramuscularly, SPE, LC/MS-IT-TOF): 24.7 ng/mL
- detection level in urine, 1 month ([2]; patient 2, urine 1 month after 11.25 mg Diphereline P.R. (triptorelin pamoate) intramuscularly, ND = not detectable, SPE, LC/MS-IT-TOF): 0.3 ng/mL
- detection level in urine, 3 h ([2]; patient 2, urine 3 h after 11.25 mg Diphereline P.R. (triptorelin pamoate) intramuscularly, SPE, LC/MS-IT-TOF): 25.3 ng/mL
- detection level in urine, 6 h ([2]; patient 2, urine 6 h after 11.25 mg Diphereline P.R. (triptorelin pamoate) intramuscularly, SPE, LC/MS-IT-TOF): 43.5 ng/mL
- detection level in urine, 3 h ([2]; patient 3, urine 3 h after 11.25 mg Diphereline P.R. (triptorelin pamoate) intramuscularly, SPE, LC/MS-IT-TOF): 12.8 ng/mL
- detection level in urine, 6 h ([2]; patient 3, urine 6 h after 11.25 mg Diphereline P.R. (triptorelin pamoate) intramuscularly, SPE, LC/MS-IT-TOF): 3.2 ng/mL
- detection level in urine, 3 h ([2]; patient 4, urine 3 h after 11.25 mg Diphereline P.R. (triptorelin pamoate) intramuscularly, SPE, LC/MS-IT-TOF): 225.7 ng/mL
- detection level in urine, 6 h ([2]; patient 4, urine 6 h after 11.25 mg Diphereline P.R. (triptorelin pamoate) intramuscularly, SPE, LC/MS-IT-TOF): 250.6 ng/mL
- detection level in urine, 1 month ([2]; patient 5, urine 1 month after 11.25 mg Diphereline P.R. (triptorelin pamoate) intramuscularly, ND = not detectable, SPE, LC/MS-IT-TOF): 0.6 ng/mL
- detection level in urine, 3 h ([2]; patient 5, urine 3 h after 11.25 mg Diphereline P.R. (triptorelin pamoate) intramuscularly, SPE, LC/MS-IT-TOF): 179.1 ng/mL
- detection level in urine, 6 h ([2]; patient 5, urine 6 h after 11.25 mg Diphereline P.R. (triptorelin pamoate) intramuscularly, SPE, LC/MS-IT-TOF): 202.0 ng/mL

Compound: CC(C)C[C@H](NC(=O)[C@@H](Cc1c[nH]c2ccccc12)NC(=O)[C@H](Cc1ccc(O)cc1)NC(=O)[C@H](CO)NC(=O)[C@H](Cc1c[nH]c2ccccc12)NC(=O)[C@H](Cc1c[nH]cn1)NC(=O)[C@@H]1CCC(=O)N1)C(=O)N[C@@H](CCCNC(=N)N)C(=O)N1CCC[C@H]1C(=O)NCC(N)=O [Triptorelin, triptorelin]
- level at 3 h ([2]; human, urine, im, 11.25 mg, mean of n = 5 patients, urine 3 h after 11.25 mg Diphereline P.R. (triptorelin pamoate) intramuscularly, SPE, LC/MS-IT-TOF, read-out: detection level in urine, 3 h, mean): 64.1 ng/mL
- level at 6 h ([2]; human, urine, im, 11.25 mg, mean of n = 5 patients, urine 6 h after 11.25 mg Diphereline P.R. (triptorelin pamoate) intramuscularly, SPE, LC/MS-IT-TOF, read-out: detection level in urine, 6 h, mean): 62.6 ng/mL

Compound: GnRH: endogenous 10-amino-acid peptide synthesized and produced in the hypothalamus
- half-life [3]: 2 min
